Assay results from patent US4348388A, “11-Amino-11-deoxydaunorubicin and analogs” (G.D. Searle & Co., priority 1980, dated 1982).
Converted amounts (≈) assume the structure as drawn. Like-named read-outs stand apart in the source and are kept apart here.

Columns and labels:
L-cells = experiment: L-cell cytotoxicity; assay type: cell-based; details: 48 h
Experimental: Expotentially growing L-cells were treated with dilutions of Compound XII and adriamycin and ID50 (concentration of compounds giving 50% inhibition of cell growth) measured after 48 hours with the following results.

[1] = background; limits use; cited from earlier work
L-1210 leukemia = experiment: Antineoplastic activity against L-1210 leukemia (single i.v. dose, survival vs control mice); assay type: in vivo, BDF1 male mice; details: single i.v. dose 24 hours after i.v. implant of 10^5 L-1210 cells; at optimum dose (Adriamycin 33.6, Ex. XII 27, 4-Demethoxydaunorubicin 4.5 μmoles/kg); ten mice per group
Experimental: The antineoplastic activity of the compounds of this invention was first established against L-1210 leukemia. The relative activities against the L-1210 leukemia and the L cell cytotoxicity was determined and compared to that of adriamycin.
Donor mice were implanted with L-1210 leukemia cells i.p. On the sixth day following implant, the mice were sacrificed. Tumor cells were collected from the peritoneal cavity, suspended in saline solution, and 10^5 cells per mouse were implanted i.v. into BDF1 male mice weighing 18-20 grams. Ten mice per treatment group were employed and the day of implantation considered as day 0. A single dose of test compound was administered by i.v. injection 24 hours following the implant of L-1210 tumor cells. The animals were observed and the survival pattern was compared with that of control mice which received the same tumor implant but were not treated with drug. Results are presented as %ILS (increase in life span over control animals) in Table 3 below.

P-388 leukemias = experiment: Activity against P-388 leukemia by oral or intraperitoneal administration; assay type: in vivo
L-1210 leukemias = experiment: Activity against L-1210 leukemia by oral or intraperitoneal administration; assay type: in vivo
[2] = administered intraperitoneally, compared with intravenous

SMILES: COc1cccc2c1C(=O)c1c(O)c3c(c(O)c1C2=O)C[C@@](O)(C(=O)CO)C[C@@H]3O[C@H]1C[C@H](N)[C@H](O)[C@H](C)O1 [Adriamycin]
- IC50 (L-cells; read-out: ID50 (concentration of compounds giving 50% inhibition of cell growth), Ex. 19, exponentially growing L-cells): 0.063 µg/mL (≈ 0.116 µM)
- IC50 (L-cells; read-out: ID50 (concentration of compounds giving 50% inhibition of cell growth), Ex. 20, exponentially growing L-cells): 0.1 µg/mL (≈ 0.184 µM)
- cardiac toxicity [1]: cardiac toxicity
- % ILS (increase in life span over control animals) (L-1210 leukemia): 100%
- Survivors at day 60 (L-1210 leukemia): 0

SMILES: CC(=O)[C@]1(O)Cc2c(O)c3c(c(O)c2[C@@H](O[C@H]2C[C@H](N)[C@H](O)[C@H](C)O2)C1)C(=O)c1ccccc1C3=O [4-Demethoxydaunorubicin]
- % ILS (increase in life span over control animals) (L-1210 leukemia): 83%
- Survivors at day 60 (L-1210 leukemia): 0

SMILES: CC(=O)[C@]1(O)Cc2c(N)c3c(c(O)c2[C@@H](O[C@H]2C[C@H](N)[C@H](O)[C@H](C)O2)C1)C(=O)c1ccccc1C3=O [Compound XII, cis-9-acetyl-11-amino-7S-[(3-amino-2,3,6-trideoxy-α-L-lyxo-hexopyranosyl)oxy]-7,8,9,10-tetrahydro-6,9-dihydroxy-5,12-naphthacenedione chloride]
- IC50 (L-cells; Ex. 19, exponentially growing L-cells, read-out: ID50 (concentration of compounds giving 50% inhibition of cell growth)): 0.01 µg/mL
- IC50 (L-cells; Ex. 20, exponentially growing L-cells, read-out: ID50 (concentration of compounds giving 50% inhibition of cell growth)): 0.015 µg/mL
- activity against P-388 leukemia (P-388 leukemias; [2]): less active
- activity against P-388 leukemia (P-388 leukemias; administered orally): inactive
- % ILS (increase in life span over control animals) (L-1210 leukemia): 96%
- Survivors at day 60 (L-1210 leukemia): 0
- activity against L-1210 leukemia (L-1210 leukemias; [2]): less active
- activity against L-1210 leukemia (L-1210 leukemias; administered orally): inactive
